ChEMBL document CHEMBL1154822, “Synthesis and antiproliferative activity of 7-azaindirubin-3'-oxime, a 7-aza isostere of the natural indirubin pharmacophore” (J Nat Prod, 2009)

Legend:
Format in all cases: functional
[1] = tested on: UO-31; assay: Cytotoxicity against human UO31 cells assessed as cell growth at 1 uM after 1 to 11 days by MTT assay; details: read-out: Activity
[2] = tested on: NCI-H23; assay: Cytotoxicity against human NCI-H23 cells assessed as cell growth at 10 uM after 1 to 11 days by MTT assay; details: read-out: Activity
[3] = tested on: KM12; assay: Cytotoxicity against human KM12 cells assessed as cell growth at 1 uM after 1 to 11 days by MTT assay; details: read-out: Activity
[4] = tested on: HT-29; assay: Cytotoxicity against human HT-29 cells assessed as cell growth at 100 uM after 1 to 11 days by MTT assay; details: read-out: Activity
[5] = tested on: DU-145; assay: Cytotoxicity against human DU145 cells assessed as cell growth at 1 mM after 1 to 11 days by MTT assay; details: read-out: Activity
[6] = tested on: LOX IMVI; assay: Cytotoxicity against human LOXIMVI cells after 1 to 11 days by MTT assay
[7] = tested on: NCI-H23; assay: Cytotoxicity against human NCI-H23 cells assessed as cell growth at 100 uM after 1 to 11 days by MTT assay; details: read-out: Activity
[8] = tested on: HCT-116; assay: Cytotoxicity against human HCT116 cells assessed as cell growth at 0.1 uM after 1 to 11 days by MTT assay; details: read-out: Activity
[9] = tested on: OVCAR-4; assay: Cytotoxicity against human OVCAR4 cells after 1 to 11 days by MTT assay
[10] = tested on: UACC-62; assay: Cytotoxicity against human UACC62 cells assessed as cell growth at 1 mM after 1 to 11 days by MTT assay; details: read-out: Activity
[11] = tested on: SK-MEL-5; assay: Cytotoxicity against human SK-MEL-5 cells assessed as cell growth at 1 mM after 1 to 11 days by MTT assay; details: read-out: Activity
[12] = tested on: K562; assay: Cytotoxicity against human K562 cells after 1 to 11 days by MTT assay
[13] = tested on: HOP-92; assay: Cytotoxicity against human HOP92 cells after 1 to 11 days by MTT assay
[14] = tested on: OVCAR-8; assay: Cytotoxicity against human OVCAR8 cells assessed as cell growth at 1 mM after 1 to 11 days by MTT assay; details: read-out: Activity
[15] = tested on: RXF 393; assay: Cytotoxicity against human […] cells assessed as cell growth at 100 uM after 1 to 11 days by MTT assay; details: read-out: Activity
[16] = tested on: SNB-75; assay: Cytotoxicity against human SNB75 cells after 1 to 11 days by MTT assay
[17] = tested on: SF-268; assay: Cytotoxicity against human SF268 cells after 1 to 11 days by MTT assay
[18] = tested on: SK-OV-3; assay: Cytotoxicity against human SKOV3 cells assessed as cell growth at 10 uM after 1 to 11 days by MTT assay; details: read-out: Activity
[19] = tested on: SN12C; assay: Cytotoxicity against human SN12C cells after 1 to 11 days by MTT assay
[20] = tested on: SN12C; assay: Cytotoxicity against human SN12C cells assessed as cell growth at 1 mM after 1 to 11 days by MTT assay; details: read-out: Activity
[21] = tested on: MDA-MB-231; assay: Cytotoxicity against human MDA-MB-231 cells assessed as cell growth at 0.1 uM after 1 to 11 days by MTT assay; details: read-out: Activity
[22] = tested on: PC-3; assay: Cytotoxicity against human PC3 cells assessed as cell growth at 10 uM after 1 to 11 days by MTT assay; details: read-out: Activity
[23] = Cytotoxicity against human Hs 578T cells assessed as cell growth at 100 uM after 1 to 11 days by MTT assay; details: read-out: Activity
[24] = tested on: OVCAR-3; assay: Cytotoxicity against human OVCAR-3 cells assessed as cell growth at 1 mM after 1 to 11 days by MTT assay; details: read-out: Activity
[25] = tested on: HCT-116; assay: Cytotoxicity against human HCT116 cells assessed as cell growth at 10 uM after 1 to 11 days by MTT assay; details: read-out: Activity
[26] = tested on: NCI/ADR-RES; assay: Cytotoxicity against human NCI/ADR-RES cells assessed as cell growth at 1 mM after 1 to 11 days by MTT assay; details: read-out: Activity
[27] = tested on: SNB-19; assay: Cytotoxicity against human SNB19 cells assessed as cell growth at 1 mM after 1 to 11 days by MTT assay; details: read-out: Activity
[28] = tested on: U-251; assay: Cytotoxicity against human U251 cells assessed as cell growth at 0.1 uM after 1 to 11 days by MTT assay; details: read-out: Activity
[29] = tested on: BT-549; assay: Cytotoxicity against human BT549 cells assessed as cell growth at 10 uM after 1 to 11 days by MTT assay; details: read-out: Activity
[30] = tested on: HOP-92; assay: Cytotoxicity against human HOP92 cells assessed as cell growth at 1 uM after 1 to 11 days by MTT assay; details: read-out: Activity
[31] = tested on: TK-10; assay: Cytotoxicity against human TK10 cells assessed as cell growth at 1 uM after 1 to 11 days by MTT assay; details: read-out: Activity
[32] = Cytotoxicity against human Hs 578T cells after 1 to 11 days by MTT assay
[33] = tested on: HOP-92; assay: Cytotoxicity against human HOP92 cells assessed as cell growth at 0.1 uM after 1 to 11 days by MTT assay; details: read-out: Activity
[34] = tested on: BT-549; assay: Cytotoxicity against human BT549 cells after 1 to 11 days by MTT assay
[35] = tested on: K562; assay: Cytotoxicity against human K562 cells assessed as cell growth at 0.1 uM after 1 to 11 days by MTT assay; details: read-out: Activity
[36] = tested on: UACC-62; assay: Cytotoxicity against human UACC62 cells assessed as cell growth at 100 uM after 1 to 11 days by MTT assay; details: read-out: Activity
[37] = tested on: OVCAR-3; assay: Cytotoxicity against human OVCAR-3 cells assessed as cell growth at 100 uM after 1 to 11 days by MTT assay; details: read-out: Activity
[38] = tested on: RXF 393; assay: Cytotoxicity against human […] cells after 1 to 11 days by MTT assay
[39] = tested on: A498; assay: Cytotoxicity against human A498 cells after 1 to 11 days by MTT assay
[40] = tested on: A549; assay: Cytotoxicity against human A549 cells assessed as cell growth at 10 uM after 1 to 11 days by MTT assay; details: read-out: Activity
[41] = tested on: HCT-15; assay: Cytotoxicity against human HCT15 cells assessed as cell growth at 1 uM after 1 to 11 days by MTT assay; details: read-out: Activity
[42] = tested on: HCC 2998; assay: Cytotoxicity against human HCC2998 cells assessed as cell growth at 10 uM after 48 hrs by MTT assay; details: HCC 2998, 48 h, read-out: Activity
[43] = read-out: LC50 (the source's name)

O=C1Nc2ncccc2/C1=C1/Nc2ccccc2/C1=N\O
growth at 1 µM [1]: 80% | growth at 10 µM [2]: 83% | growth at 1 µM [3]: 91% | growth at 100 µM [4]: 81% | growth at 1000 µM [5]: 35% | GI50 [6]: 5.17 µM | TGI [6]: > 100 µM | CC50 [6, 43]: > 100 µM | growth at 100 µM [7]: 55% | growth at 0.1 µM [8]: 109% | GI50 [9]: 9.1 µM | TGI [9]: > 100 µM | CC50 [9, 43]: > 100 µM | growth at 1000 µM [10]: 25% | growth at 1000 µM [11]: 30% | GI50 [12]: 3.84 µM | TGI [12]: > 100 µM | CC50 [12, 43]: > 100 µM | GI50 [13]: 2.97 µM | TGI [13]: > 100 µM | CC50 [13, 43]: > 100 µM | growth at 1000 µM [14]: 52% | growth at 100 µM [15]: -9% | GI50 [16]: 3.13 µM | TGI [16]: > 100 µM | CC50 [16, 43]: > 100 µM | GI50 [17]: > 100 µM | TGI [17]: > 100 µM | CC50 [17, 43]: > 100 µM | growth at 10 µM [18]: 69% | GI50 [19]: 4.98 µM | TGI [19]: > 100 µM | CC50 [19, 43]: > 100 µM | growth at 1000 µM [20]: 36% | growth at 0.1 µM [21]: 99% | growth at 10 µM [22]: 82% | growth at 100 µM [23]: 4% | growth at 1000 µM [24]: 51% | growth at 10 µM [25]: 108% | growth at 1000 µM [26]: 55% | growth at 1000 µM [27]: 83% | growth at 0.1 µM [28]: 97% | growth at 10 µM [29]: 69% | growth at 1 µM [30]: 81% | growth at 1 µM [31]: 104% | GI50 [32]: 2.39 µM | TGI [32]: > 100 µM | CC50 [32, 43]: > 100 µM | growth at 0.1 µM [33]: 102% | GI50 [34]: 5.41 µM | TGI [34]: > 100 µM | CC50 [34, 43]: > 100 µM | growth at 0.1 µM [35]: 88% | growth at 100 µM [36]: 27% | growth at 100 µM [37]: 51% | GI50 [38]: 1.22 µM | TGI [38]: > 100 µM | CC50 [38, 43]: > 100 µM | GI50 [39]: 1.93 µM | TGI [39]: > 100 µM | CC50 [39, 43]: > 100 µM | growth at 10 µM [40]: 91% | growth at 1 µM [41]: 96%

O=C1Nc2ncccc2/C1=C1/Nc2ccccc2C1=O
growth at 10 µM [42]: 25.3%
